According to ChEMBL document CHEMBL3988442, “University of Dundee, Small-Polar-MMV Screening Library” (2021):
Where “and” joins values, the source holds several entries; their conditions need not be identical. Identical values can stand only once.

Tests used:
[1] = molecular target: T1, Histidine--tRNA ligase (Trypanosoma cruzi (strain CL Brener), UniProt Q4DA54); assay: Trypanosoma cruzi histidyl tRNA synthetase (Tc-HisRS); format: functional
T1 sequence (Q4DA54 whole entry): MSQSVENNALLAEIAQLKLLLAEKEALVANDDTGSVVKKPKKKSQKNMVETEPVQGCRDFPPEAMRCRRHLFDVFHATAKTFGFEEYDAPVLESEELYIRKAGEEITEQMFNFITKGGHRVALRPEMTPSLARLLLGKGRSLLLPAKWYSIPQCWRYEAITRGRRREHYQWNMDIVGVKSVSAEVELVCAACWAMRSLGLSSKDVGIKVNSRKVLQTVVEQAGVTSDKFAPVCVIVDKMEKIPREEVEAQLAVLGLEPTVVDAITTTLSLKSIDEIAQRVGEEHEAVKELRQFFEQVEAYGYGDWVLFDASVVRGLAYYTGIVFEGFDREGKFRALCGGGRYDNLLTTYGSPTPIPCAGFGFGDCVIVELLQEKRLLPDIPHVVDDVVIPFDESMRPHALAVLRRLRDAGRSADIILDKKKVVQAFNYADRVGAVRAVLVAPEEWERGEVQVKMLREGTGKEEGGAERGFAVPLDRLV

[2] = molecular target: ClpP1P2 (Mycobacterium tuberculosis (strain ATCC 25618 / H37Rv), UniProt P9WPC3+P9WPC5); assay: in vitro assay to detect presence of AMC directly proportional to the activity of ClpP1P2. GHDDI collaboration.; format: functional
ClpP1P2, sequence (P9WPC5 whole entry): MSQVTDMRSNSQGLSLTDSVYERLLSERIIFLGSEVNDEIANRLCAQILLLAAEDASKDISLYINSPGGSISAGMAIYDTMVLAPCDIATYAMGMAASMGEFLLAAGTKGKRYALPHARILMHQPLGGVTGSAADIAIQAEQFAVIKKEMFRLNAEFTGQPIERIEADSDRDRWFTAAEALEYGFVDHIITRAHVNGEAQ
ClpP1P2, sequence (P9WPC3 whole entry): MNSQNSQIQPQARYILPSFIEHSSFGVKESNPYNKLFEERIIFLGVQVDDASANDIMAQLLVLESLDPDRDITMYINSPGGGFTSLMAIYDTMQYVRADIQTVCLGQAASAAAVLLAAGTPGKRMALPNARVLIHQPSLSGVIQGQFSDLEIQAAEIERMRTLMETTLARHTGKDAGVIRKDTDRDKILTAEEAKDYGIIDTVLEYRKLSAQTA

[3] = molecular target: T2, Histidine--tRNA ligase (Leishmania infantum, UniProt A4I591); assay: Leishmania infantum Histidine tRNA synthetase (LdHisRS); format: functional
T2 sequence (A4I591 whole entry): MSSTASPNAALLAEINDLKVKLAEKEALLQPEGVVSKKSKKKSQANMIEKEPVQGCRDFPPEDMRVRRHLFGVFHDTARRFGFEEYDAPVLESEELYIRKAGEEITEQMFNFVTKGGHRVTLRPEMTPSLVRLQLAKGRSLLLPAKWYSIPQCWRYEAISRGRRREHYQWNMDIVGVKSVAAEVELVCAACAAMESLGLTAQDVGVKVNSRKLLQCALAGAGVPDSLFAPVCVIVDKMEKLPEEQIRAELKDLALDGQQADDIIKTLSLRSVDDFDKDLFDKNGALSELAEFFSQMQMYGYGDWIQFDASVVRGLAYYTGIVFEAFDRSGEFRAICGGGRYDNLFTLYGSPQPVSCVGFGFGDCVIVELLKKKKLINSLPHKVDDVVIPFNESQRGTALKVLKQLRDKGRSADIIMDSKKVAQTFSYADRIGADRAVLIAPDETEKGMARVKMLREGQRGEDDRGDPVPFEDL

[4] = microbe, parasite or virus in culture; conditions: Mycobacterium tuberculosis, 96 h, read-out: pIC50 (converted)
[5] = microbe, parasite or virus in culture; conditions: Mycobacterium tuberculosis, 72 h, read-out: pIC50 (converted)
[6] = In vitro enzyme assay to detect hydrolysis of chlorophenol red-beta-D-[…] directly proportional to the number of Toxoplasma stably expressing beta-galactosidase; format: functional, organism-based, Toxoplasma gondii; conditions: Toxoplasma gondii
[7] = tested on: Plasmodium falciparum; assay: Calibr Malaria Delayed Death Assay SOP; format: functional, organism-based; conditions: for IC50: Plasmodium falciparum
[8] = molecular target: T3, Coenzyme A biosynthesis bifunctional protein CoaBC (Mycobacterium tuberculosis (strain ATCC 25618 / H37Rv), UniProt P9WNZ1); assay: Biomol Green assay for MtCoaBC inhibitor, OD650 read; format: functional
T3 sequence (P9WNZ1 whole entry): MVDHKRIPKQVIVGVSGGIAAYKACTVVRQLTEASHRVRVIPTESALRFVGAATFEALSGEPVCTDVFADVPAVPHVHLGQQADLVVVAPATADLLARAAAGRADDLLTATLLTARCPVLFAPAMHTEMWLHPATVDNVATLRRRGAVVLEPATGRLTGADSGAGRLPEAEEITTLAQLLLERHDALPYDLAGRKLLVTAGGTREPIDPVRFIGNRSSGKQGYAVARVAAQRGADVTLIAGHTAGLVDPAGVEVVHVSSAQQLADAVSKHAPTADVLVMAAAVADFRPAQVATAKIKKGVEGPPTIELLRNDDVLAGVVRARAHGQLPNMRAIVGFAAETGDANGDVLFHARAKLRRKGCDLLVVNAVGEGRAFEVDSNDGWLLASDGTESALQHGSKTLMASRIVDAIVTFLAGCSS

CN(C)[C@H]1CCCCN(Cc2cnc(NCc3ccccc3)nc2)C1 gave an IC50 [1] greater than 100 µM.
With CN1CCN2CCN(Cc3cnc(NCc4ccccc4)nc3)CC2C1 (stereo not given) the IC50 [1] was greater than 100 µM.
In the case of c1ccc(CNc2ncc(CN3CC[C@H]4CC[C@@H](C3)N4)cn2)cc1, the IC50 [1] is reported as greater than 100 µM.
With CNc1cc(-c2ccc(COCCN)cc2)c2cc[nH]c2n1 the IC50 [1] was 38.8 µM and 97 µM and the IC50 [2] was greater than 100 µM.
With O=C(NCc1cnn2cccnc12)c1cccc(CC2CCNCC2)c1 the IC50 [1] was 39.3 µM and 21.3 µM, the IC50 [3] was 17.6 µM and 18.9 µM and the IC50 [4] was 45.6 µM. It also gave an IC50 [5] of 41.5 µM.
With NCC1CCN(C2CCN(c3ccc(-c4ccco4)cc3)CC2)C1 (stereo not given) the IC50 [1] was 25.1 µM and 18.7 µM, the IC50 [6] was 3.86 µM and the IC50 [3] was 25.6 µM and 22.1 µM. It also gave a pIC50 [7] of 6.504, an IC50 [7] of 0.343 µM and an IC50 [5] of 11.7 µM.
Compound CC(C)(O)CCc1cccc(C(=O)NCc2cnn3cccnc23)c1 has an IC50 [1] greater than 100 µM.
In the case of CNC1CCN(C2CCN(c3ccc(-c4ccco4)cc3)CC2)CC1, the IC50 [1] is reported as 65.7 µM and 43.8 µM, the IC50 [4] is reported as greater than 50.1 µM and the IC50 [5] is reported as 24.6 µM.
In the case of CC(C)n1ccnc1CNC(=O)c1cccc(CCC(C)(C)O)c1, the IC50 [1] is reported as greater than 100 µM.
In the case of NCC1Cc2cc(-c3nccc(N4CCC(O)CC4)n3)cc(F)c2O1 (stereo not given), the IC50 [8] is reported as greater than 30.2 µM, the IC50 [1] is reported as 20.1 µM and 18.7 µM and the IC50 [3] is reported as 31.2 µM and 28.1 µM. The pIC50 [7] was 6.277 and the IC50 [7] was 0.569 µM.
NCC1Cc2cccc(-c3nccc(N4CCC(O)CC4)n3)c2O1 (stereo not given) showed an IC50 [1] greater than 100 µM.
For NC1CCN(C2CCN(c3ccc(-c4ccco4)cc3)CC2)CC1, the IC50 [1] was 34.3 µM and 40.4 µM and the IC50 [3] was 23 µM and 22.9 µM.
For OCCNc1cc(-c2nccnc2N2CCCC2)c2cc[nH]c2n1, the IC50 [1] was 32.6 µM and 31 µM and the IC50 [3] was 16.2 µM and 14.9 µM.
For COc1cccn(CC(=O)N2CCCC3(CCCCC3)C2)c1=O, the IC50 [1] was 4.24 µM and 4.44 µM and the IC50 [3] was 8.99 µM and 8.08 µM.
COc1cccn(CC(=O)N2CCCC3(CCCO3)CC2)c1=O (stereo not given) gave an IC50 [1] greater than 100 µM and an IC50 [3] greater than 100 µM.
With CNc1cc(-c2cccc(CN)c2)c2cc[nH]c2n1 the IC50 [1] was 27.7 µM and 26.3 µM, the IC50 [3] was 25.1 µM and 23.5 µM and the IC50 [2] was greater than 100 µM.
In the case of Cc1nc(C)n(CC2CCCN2Cc2nc(C)c3ccccc3n2)n1 (stereo not given), the IC50 [1] is reported as 30.1 µM and 20 µM and the IC50 [3] is reported as 31 µM and 34.3 µM.
In the case of Cc1nc(C)n(CC2CCCN2Cc2nc3ccccc3c(=O)[nH]2)n1 (stereo not given), the IC50 [1] is reported as greater than 100 µM.
Cc1nc(C)n(CC2CCCN2Cc2nc3ccccc3o2)n1 (stereo not given) showed an IC50 [1] greater than 100 µM.
Compound Cc1nc(C)n(CC2CCCN2Cc2nc3ccccc3s2)n1 (stereo not given) has an IC50 [1] greater than 100 µM.
Compound Cc1nc(CN(C)CC2CCCN2c2cccnn2)oc1C (stereo not given) has an IC50 [1] greater than 100 µM.
Compound CN(Cc1nc2ccccc2o1)CC1CCCN1c1cccnn1 (stereo not given) has an IC50 [1] greater than 100 µM.
For CN(Cc1nc2ccccc2n1C)CC1CCCN1c1cccnn1 (stereo not given), the IC50 [1] was 52.7 µM and 52.1 µM.
In the case of Cc1nc(CN(C)CC2CCCN2c2cccnn2)nc2ccccc12 (stereo not given), the IC50 [1] is reported as 30.3 µM and 27.2 µM, the IC50 [3] is reported as 11.8 µM and 14.8 µM and the IC50 [4] is reported as greater than 50.1 µM. It also gave an IC50 [5] of 10.8 µM.
Cc1nc2ccccc2nc1CN(C)C1CCCN(c2cccnn2)C1 (stereo not given) gave an IC50 [1] greater than 100 µM.
With Cc1nc(C)n(CC2CCCN2Cc2nc(N)c3ccccc3n2)n1 (stereo not given) the IC50 [1] was greater than 100 µM.
With Cc1nc(C)n(CC2CCCN2Cc2nc3ccccc3n2C)n1 (stereo not given) the IC50 [1] was greater than 100 µM.
Cc1nc(C)n(CC2CCCN2Cc2nc3ccccc3nc2C)n1 (stereo not given) gave an IC50 [1] greater than 100 µM.
With Cc1nc2ccccc2nc1CN(C)CC1CCCN1c1cccnn1 (stereo not given) the IC50 [1] was 90.5 µM and 50.8 µM.
Work on Cc1noc(C)c1CN(C)CC1CCCN1c1cccnn1 (stereo not given) yielded an IC50 [1] greater than 100 µM.
In the case of CN(Cc1nc(N)c2ccccc2n1)CC1CCCN1c1cccnn1 (stereo not given), the IC50 [1] is reported as greater than 100 µM.
With COc1ccc(C)cc1CN1CCC(c2cc3ncccc3cn2)CC1.Cl the IC50 [1] was 14.5 µM and 14.6 µM, the IC50 [3] was 17.6 µM and 23.6 µM and the pIC50 [7] was 6.624. For the same compound, the IC50 [7] was 0.264 µM, the IC50 [4] was 25.8 µM and the IC50 [5] was 19.4 µM.
O=C1N(CC2CC2)CCC12CCN(c1ncccn1)CC2 gave an IC50 [1] greater than 100 µM.
For c1ccc(N2CCCC3(COCCN(c4nccs4)C3)C2)nc1 (stereo not given), the IC50 [8] was greater than 30.2 µM and the IC50 [1] was 73.9 µM and 71.8 µM.
For Cn1nc(Cn2ccnc2)c2c1CN(c1nccs1)C2, the IC50 [1] was 88.3 µM and 86.2 µM and the IC50 [3] was 20.5 µM and 14.5 µM.
With Cc1ccc(N2CCC3(CC2)COCCN(c2nccs2)C3)nn1 the IC50 [1] was 96.2 µM and 98.9 µM and the IC50 [3] was 33.4 µM and 28.7 µM.
With Cc1ccc(N2CCCC3(COCCN(c4nccs4)C3)C2)nn1 (stereo not given) the IC50 [1] was greater than 100 µM.
